Test results: patent publication US20250129088A1, “CEREBLON E3 UBIQUITIN LIGASE INHIBITOR” (Gan & Lee Pharmaceuticals Co., Ltd., priority 2022, published 2025)

Assays:
Type in all cases: cell-based
MV-4-11 cells = experiment: MV-4-11 cell proliferation inhibition, CCK-8; details: Homo sapiens, MV4-11, 96 h, MV-4-11, 4 days, Table 6, positive control Alisertib
Procedure: The complete medium required for MV-4-11 cells is IMDM (ATCC, Product number: 30-2005) basal medium containing 10% fetal bovine serum. MV-4-11 cells were seeded in a 96-well plate at a density of 7,500 cells/well, and different concentrations of the compound of the present invention and positive control samples Alisertib (source: Bide Pharmaceuticals), Palbociclib (source: Bide Pharmaceuticals), Ibrutinib (source Bide Pharmaceuticals) treated cells. The cells were incubated in a 37° C., 5% CO2 cell incubator for 4 days. Cell viability was detected using the CCK-8 kit (Beyotime, Product number: C0040) according to the manufacturer's instructions. According to the inhibition rate, GraphPad Prism software was used to calculate the IC50 value of each compound for 4 days, and the results are shown in Table 6-8.

K562 cells = experiment: K562 cell proliferation inhibition, CCK-8; details: K562, 4 days
Procedure: The complete medium required for K562 cells is IMDM (ATCC, Product number: 30-2005) basal medium containing 10% fetal bovine serum. K562 cells were seeded in a 96-well plate at a density of 7,500 cells/well, and different concentrations of the compound of the present invention and positive control samples Alisertib (source: Bide Pharmaceuticals) and dBET6 (source: Bide Pharmaceuticals) were prepared to treat the cells. The cells were incubated at a 37° C., 5% CO2 cell culture incubator for 4 days.
Cell viability was detected using the CCK-8 kit (Beyotime, Product number: C0040) according to the manufacturer's instructions. According to the inhibition rate, GraphPad Prism software was used to calculate the IC50 value of each compound for 4 days, and the results are shown in Table 11-12.

VCaP cells = experiment: VCaP cell proliferation inhibition, CCK-8; details: Homo sapiens, 168 h, 7 days
From the text: The complete medium required for VCaP cells is DMEM high glucose (Gibco, Product number: 11995-065) basal medium containing 10% fetal bovine serum. […] Cell viability was detected using the CCK-8 kit (Beyotime, Product number: C0040) according to the manufacturer's instructions.

LNCaP FGC cells = experiment: LNCaP FGC cell proliferation inhibition, CCK-8; details: Homo sapiens, 96 h, 4 days
From the text: The complete medium required for LNCaP FGC cells is RPMI 1640 (ATCC, Product number: 30-2001) basal medium containing 10% fetal calf serum. […] Cell viability was detected using the CCK-8 kit (Beyotime, Product number: C0040) according to the manufacturer's instructions.

[1] = Homo sapiens, 96 h, Table 11, positive control Alisertib
[2] = Homo sapiens, 96 h, Table 12, positive control dBET6

| SMILES | IC50 (MV-4-11 cells) | IC50 (K562 cells; [1]) | IC50 (K562 cells; [2]) | IC50 (VCaP cells) | IC50 (LNCaP FGC cells) | also measured |
| --- | --- | --- | --- | --- | --- | --- |
| Cc1nc(Nc2ncc(C(=O)Nc3c(C)cccc3Cl)s2)cc(N2CCN(CCOCCC(=O)N3CC4(CCc5cc6c(cc5O4)C(=O)N(C4CCC(=O)NC4=O)C6=O)C3)CC2)n1 (centres unmarked) [PROTAC 11, N-(2-chloro-6-methylphenyl)-2-((6-(4-(2-(3-(7′-(2,6-dioxopiperidin-3-yl)-6′,8′-dioxo-4′,6′,7′,8′-tetrahydro-3′H-spiro[azetidine-3,2′-pyrano[2,3-f]isoindol]-1-yl)-3-oxopropoxy)ethyl)piperazin-1-yl)-2-methylpyrimidin-4-yl)amino)thiazole-5-carboxamide] | – | – | 66 nM | – | – | – |
| Cc1nc(Nc2ncc(C(=O)Nc3c(C)cccc3Cl)s2)cc(N2CCN(CCOCCC(=O)N3CC4(CCc5cc6c(cc5O4)C(=O)N(C4CCC(=O)NC4=O)C6)C3)CC2)n1 (centres unmarked) [PROTAC 14, N-(2-chloro-6-methylphenyl)-2-((6-(4-(2-(3-(7′-(2,6-dioxopiperidin-3-yl)-8′-oxo-4′,6′,7′,8′-tetrahydro-3′H-spiro[azetidine-3,2′-pyrano[2,3-f]isoindol]-1-yl)-3-oxopropoxy)ethyl)piperazin-1-yl)-2-methylpyrimidin-4-yl)amino)thiazole-5-carboxamide] | – | – | 57 nM | – | – | – |
| Cc1nc(Nc2ncc(C(=O)Nc3c(C)cccc3Cl)s2)cc(N2CCN(CCOCCC(=O)N3CCC4(CC3)COc3cc5c(cc3O4)CN(C3CCC(=O)NC3=O)C5=O)CC2)n1 (centres unmarked) [PROTAC 15, N-(2-chloro-6-methylphenyl)-2-((6-(4-(2-(3-(7′-(2,6-dioxopiperidin-3-yl)-6′-oxo-7′,8′-dihydro-3′H,6′H-spiro[piperidine-4,2′-[1,4]dioxino[2,3-f]isoindol]-1-yl)-3-oxopropoxy)ethyl)piperazin-1-yl)-2-methylpyrimidin-4-yl)amino)thiazole-5-carboxamide] | – | – | 5 nM | – | – | – |
| COC1(CN2CC3(CCc4cc5c(cc4O3)CN(C3CCC(=O)NC3=O)C5=O)C2)CCN(C(=O)c2ccc(N3C(=S)N(c4ccc(C#N)c(C(F)(F)F)c4)C(=O)C3(C)C)cc2F)CC1 (centres unmarked) [PROTAC 76] | – | – | – | 350 nM | 3240 nM | – |
| CC1(C)C(=O)N(c2ccc(C#N)c(C(F)(F)F)c2)C(=S)N1c1ccc(C(=O)N2CC(N3CC4(CCc5cc6c(cc5O4)C(=O)N(C4CCC(=O)NC4=O)C6=O)C3)C2)c(F)c1 (centres unmarked) [PROTAC 77, 4-(3-(4-(3-(7′-(2,6-dioxopiperidin-3-yl)-6′,8′-dioxo-4′,6′,7′,8′-tetrahydro-3′H-spiro [azetidine-3,2′-pyrano[2,3-f]isoindole]-1-yl)azetidine-1-carbonyl)-3-fluorophenyl)-4,4-dimethyl-5-oxo-2-thioimidazolidin-1-yl)-2-(trifluoromethyl)benzonitrile] | – | – | – | 2030 nM | 6450 nM | – |
| CC1(C)C(=O)N(c2ccc(C#N)c(C(F)(F)F)c2)C(=S)N1c1ccc(C(=O)N2CCC(N3CCC4(CC3)COc3cc5c(cc34)C(=O)N(C3CCC(=O)NC3=O)C5=O)CC2)c(F)c1 (centres unmarked) [PROTAC 80, 4-(3-(4-(4-(6-(2,6-dioxopiperidin-3-yl)-5,7-dioxo-6,7-dihydro-2H,5H-spiro[furo[2,3-f]isoindole-3,4′-piperidin]-1′-yl)piperidine-1-carbonyl)-3-fluorophenyl)-4,4-dimethyl-5-oxo-2-thioimidazolidin-1-yl)-2-(trifluoromethyl)benzonitrile] | – | – | – | 9480 nM | 3240 nM | – |
| CC1(C)C(=O)N(c2ccc(C#N)c(C(F)(F)F)c2)C(=S)N1c1ccc(C(=O)N2CCC3(CCC(N4CCC5(CCc6cc7c(cc6O5)C(=O)N(C5CCC(=O)NC5=O)C7=O)CC4)CC3)CC2)c(F)c1 (centres unmarked) [PROTAC 83, 4-(3-(4-(9-(7′-(2,6-dioxopiperidin-3-yl)-6′,8′-dioxo-4′,6′,7′,8′-tetrahydro-3′H-spiro[piperidine-4,2′-pyrano[2,3-f]isoindol]-1-yl)-3-azaspiro[5.5]undecane-3-carbonyl)-3-fluorophenyl)-4,4-dimethyl-5-oxo-2-thioimidazolidin-1-yl)-2-(trifluoromethyl)benzonitrile] | – | – | – | 890 nM | 2630 nM | – |
| CC1(C)C(=O)N(c2ccc(C#N)c(C(F)(F)F)c2)C(=S)N1c1ccc(C(=O)N2CC3(CC(N4CCC5(CCc6cc7c(cc6O5)C(=O)N(C5CCC(=O)NC5=O)C7=O)CC4)C3)C2)c(F)c1 (centres unmarked) [PROTAC 85, 4-(3-(4-(6-(7′-(2,6-dioxopiperidin-3-yl)-6′,8′-dioxo-4′,6′,7′,8′-tetrahydro-3′H-spiro[piperidin-4,2′-pyrano[2,3-f]isoindol]-1-yl)-2-azaspiro[3.3]heptane-2-carbonyl)-3-fluorophenyl)-4,4-dimethyl-5-oxo-2-thioimidazolidin-1-yl)-2-(trifluoromethyl)benzonitrile] | – | – | – | 620 nM | 27900 nM | – |
| Cc1sc2c(c1C)C(c1ccc(Cl)cc1)=N[C@@H](CC(=O)NCCCCCCCCNC(=O)COc1cccc3c1C(=O)N(C1CCC(=O)NC1=O)C3=O)c1nnc(C)n1-2 (some centres unmarked) [dBET6, reference compound] | – | – | – | – | – | IC50 (K562 cells; Table 12, positive control dBET6): 1 nM |

More lines, main results first:

| IC50 (MV-4-11 cells) | IC50 (K562 cells; [1]) | IC50 (K562 cells; [2]) | SMILES | IC50 (VCaP cells) | IC50 (LNCaP FGC cells) | also measured |
| --- | --- | --- | --- | --- | --- | --- |
| 26 nM | 3770 nM | – | COc1cc(Nc2ncc3c(n2)-c2ccc(Cl)cc2C(c2c(F)cccc2OC)=NC3)ccc1C(=O)O [Alisertib, reference compound] | – | – | – |
| 120 nM | 150 nM | – | COc1cc(Nc2ncc3c(n2)-c2ccc(Cl)cc2C(c2c(F)cccc2OC)=NC3)ccc1C(=O)N1CCC2(CCc3cc4c(cc3O2)CN(C2CCC(=O)NC2=O)C4=O)CC1 (centres unmarked) [PROTAC 1, 3-(1-(4-((9-chloro-7-(2-fluoro-6-methoxyphenyl)-5H-benzo[c]pyrimido[4,5-e]azepine-2-yl)amino)-2-methoxybenzoyl)-6′-oxo-3′,4′,6′,8′-tetrahydro-7′H-spiro[piperidine-4,2′-pyrano[2,3-f]isoindol]-7′-yl)piperidine-2,6-dione] | – | – | – |
| 77 nM | 410 nM | – | COc1cc(Nc2ncc3c(n2)-c2ccc(Cl)cc2C(c2c(F)cccc2OC)=NC3)ccc1C(=O)N1CC2(CCc3cc4c(cc3O2)CN(C2CCC(=O)NC2=O)C4=O)C1 (centres unmarked) [PROTAC 3, 3-(1-(4-((9-chloro-7-(2-fluoro-6-methoxyphenyl)-5H-benzo[c]pyrimido[4,5-e]azepine-2-yl)amino)-2-methoxybenzoyl)-6′-oxo-3′,4′,6′,8′-tetrahydro-7′H-spiro[azetidine-3,2′-pyrano[2,3-f]isoindole]-7′-yl)piperidine-2,6-dione] | – | – | – |
| 25 nM | 220 nM | – | COc1cc(Nc2ncc3c(n2)-c2ccc(Cl)cc2C(c2c(F)cccc2OC)=NC3)ccc1C(=O)N1CC2(CCc3cc4c(cc3O2)C(=O)N(C2CCC(=O)NC2=O)C4)C1 (centres unmarked) [PROTAC 4, 3-(1-(4-((9-chloro-7-(2-fluoro-6-methoxyphenyl)-5H-benzo[c]pyrimido[4,5-e]azepine-2-yl)amino)-2-methoxybenzoyl)-8′-oxo-3′,4′,6′,8′-tetrahydro-7′H-spiro[azetidine-3,2′-pyrano[2,3-f]isoindole]-7′-yl)piperidine-2,6-dione] | – | – | – |
| 360 nM | 1470 nM | – | COc1cc(Nc2ncc3c(n2)-c2ccc(Cl)cc2C(c2c(F)cccc2OC)=NC3)ccc1C(=O)NCCOCCC(=O)N1CCC2(CC1)COc1cc3c(cc12)C(=O)N(C1CCC(=O)NC1=O)C3=O (centres unmarked) [PROTAC 7, 4-((9-chloro-7-(2-fluoro-6-methoxyphenyl)-5H-benzo[c]pyrimido[4,5-e]azepine-2-yl)amino)-N-(2-(3-(6-(2,6-dioxopiperidin-3-yl)-5,7-dioxo-6,7-dihydro-2H,5H-spiro[furan [2,3-f]isoindole-3,4′-piperidin]-1′-yl)-3-oxopropoxy)ethyl)-2-methoxybenzamide] | – | – | – |
| – | – | 20 nM | Cc1nc(Nc2ncc(C(=O)Nc3c(C)cccc3Cl)s2)cc(N2CCN(CCOCCC(=O)N3CCC4(CCc5cc6c(cc5O4)C(=O)N(C4CCC(=O)NC4=O)C6)CC3)CC2)n1 (centres unmarked) [PROTAC 13, N-(2-chloro-6-methylphenyl)-2-((6-(4-(2-(3-(7′-(2,6-dioxopiperidin-3-yl)-8′-oxo-4′,6′,7′,8′-tetrahydro-3′H-spiro[piperidine-4,2′-pyrano[2,3-f]isoindole]-1-yl)-3-oxopropoxy)ethyl)piperazin-1-yl)-2-methylpyrimidin-4-yl)amino)thiazole-5-carboxamide] | – | – | – |
| – | – | 48 nM | Cc1nc(Nc2ncc(C(=O)Nc3c(C)cccc3Cl)s2)cc(N2CCN(CCOCCC(=O)N3CC4(CCc5cc6c(cc5O4)CN(C4CCC(=O)NC4=O)C6=O)C3)CC2)n1 (centres unmarked) [PROTAC 16, N-(2-chloro-6-methylphenyl)-2-((6-(4-(2-(3-(7′-(2,6-dioxopiperidin-3-yl)-6′-oxo-4′,6′,7′,8′-tetrahydro-3′H-spiro[azetidine-3,2′-pyrano[2,3-f]isoindole]-1-yl)-3-oxopropoxy)ethyl)piperazin-1-yl)-2-methylpyrimidin-4-yl)amino)thiazole-5-carboxamide] | – | – | – |
